# Results taken from US20250311727A1, “SUBSTITUTED 2-AMINOAZINES AND SALTS THEREOF, AND USE THEREOF AS HERBICIDAL ACTIVE SUBSTANCES” (BAYER AKTIENGESELLSCHAFT, priority 2022, published 2025).
# Experiments:
# Assay type in all cases: in vivo
# Setaria viridis [1] = assay: Pre-emergence herbicide efficacy at 80 g/ha, SETVI
# Method in brief: (§1)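 Visual scoring after about 3 weeks in the greenhouse, expressed as percent activity against untreated controls, where 100% means dead plants and 0% means no difference. Treatment was applied pre-emergence to the covering soil over sown seeds, as WP or EC in water with 0.5% additive, 600 l/ha.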
# Veronica persica [2] = assay: Pre-emergence herbicide efficacy at 80 g/ha, VERPE
# Method in brief: as §1
# Polygonum convolvulus [3] = assay: Post-emergence herbicidal efficacy at 80 g/ha, POLCO; conditions: rated visually after about 3 weeks vs untreated controls, 100% = plants have died
# Text: (§2) Unwanted plants/weeds: • ABUTH: Abutilon theophrasti • ALOMY: Alopecurus myosuroides • AMARE: Amaranthus retroflexus • DIGSA: Digitaria sanguinalis • ECHCG: Echinochloa crus-galli • KCHSC: Kochia scoparia • LOLRI: Lolium rigidum • MATIN: Matricaria inodora • POAAN: Poa annua • POLCO: Polygonum convolvulus • SETVI: Setaria viridis • STEME: Stellaria media • VERPE: Veronica persica • VIOTR: Viola tricolor A. Post-Emergence Herbicidal Efficacy at 320 g/ha
# Seeds of monocotyledonous and dicotyledonous weeds and crop plants were placed in sandy loam in plastic or organic planting pots, covered with soil and cultivated in a greenhouse under controlled growth conditions. 2 to 3 weeks after sowing, the test plants were treated at the one-leaf stage. The compounds of the invention, formulated in the form of wettable powders (WP) or as emulsion concentrates (EC), were then sprayed onto the green parts of the plants as aqueous suspension or emulsion with addition of 0.5% additive at a water application rate of 600 l/ha (converted). After the test plants had been kept in the greenhouse under optimum growth conditions for about 3 weeks, the activity of the preparations was rated visually in comparison to untreated controls. For example, 100% activity=the plants have died, 0% activity=like control plants. […]
# PHBPU = assay: Post-emergence herbicidal efficacy at 80 g/ha, PHBPU; conditions: rated visually after about 3 weeks vs untreated controls, 100% = plants have died
# Experimental: Seeds of monocotyledonous and dicotyledonous weeds and crop plants were placed in sandy loam in plastic or organic planting pots, covered with soil and cultivated in a greenhouse under controlled growth conditions. 2 to 3 weeks after sowing, the test plants were treated at the one-leaf stage. The compounds of the invention, formulated in the form of wettable powders (WP) or as emulsion concentrates (EC), were then sprayed onto the green parts of the plants as aqueous suspension or emulsion with addition of 0.5% additive at a water application rate of 600 l/ha (converted). After the test plants had been kept in the greenhouse under optimum growth conditions for about 3 weeks, the activity of the preparations was rated visually in comparison to untreated controls. For example, 100% activity=the plants have died, 0% activity=like control plants. Tables B1 to B11 below show the effects of selected compounds of the general formula (I) according to Table 1 on various harmful plants and an application rate corresponding to 80 g/ha, which were obtained by the experimental procedure mentioned above.
# Kochia scoparia [4] = assay: Post-emergence herbicidal efficacy at 80 g/ha, KCHSC; conditions: rated visually after about 3 weeks vs untreated controls, 100% = plants have died
# Method in brief: (§3)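 Greenhouse post-emergence spray, one-leaf stage (2–3 wk after sowing, sandy loam). Cpd as WP/EC, aqueous + 0.5% additive, 600 l/ha water. Visual rating ~3 wk post-treatment vs untreated; 0% = as control, 100% = plants dead.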
# Setaria viridis [5] = assay: Post-emergence herbicidal efficacy at 80 g/ha, SETVI; conditions: rated visually after about 3 weeks vs untreated controls, 100% = plants have died
# Text: as §2
# (§4) Seeds of monocotyledonous and dicotyledonous weeds and crop plants were placed in sandy loam in plastic or organic planting pots, covered with soil and cultivated in a greenhouse under controlled growth conditions. 2 to 3 weeks after sowing, the test plants were treated at the one-leaf stage. The compounds of the invention, formulated in the form of wettable powders (WP) or as emulsion concentrates (EC), were then sprayed onto the green parts of the plants as aqueous suspension or emulsion with addition of 0.5% additive at a water application rate of 600 l/ha (converted). After the test plants had been kept in the greenhouse under optimum growth conditions for about 3 weeks, the activity of the preparations was rated visually in comparison to untreated controls. For example, 100% activity=the plants have died, 0% activity=like control plants.
# (§5) Tables B1 to B11 below show the effects of selected compounds of the general formula (I) according to Table 1 on various harmful plants and an application rate corresponding to 80 g/ha, which were obtained by the experimental procedure mentioned above.
# Echinochloa crus-galli [6] = assay: Pre-emergence herbicide efficacy at 80 g/ha, ECHCG; conditions: scored visually after about 3 weeks vs untreated controls, 100% = plants have died
# Text: as §2
# (§6) Seeds of monocotyledonous and dicotyledonous weed plants and crop plants were placed in plastic or organic planting pots and covered with soil. The compounds of the invention, formulated in the form of wettable powders (WP) or as emulsion concentrates (EC), were then applied to the surface of the covering soil as aqueous suspension or emulsion with addition of 0.5% additive at a water application rate equivalent to 600 l/ha. After the treatment, the pots were placed in a greenhouse and kept under good growth conditions for the test plants. After about 3 weeks, the efficacy of the preparations was scored visually in comparison with untreated controls as percentages. For example, 100% activity=the plants have died, 0% activity=like control plants.
# (§7) Tables D1 to D12 below show the effects of selected compounds of the general formula (I) according to Table 1 on various harmful plants and an application rate corresponding to 80 g/ha, which were obtained by the experimental procedure mentioned above.
# Amaranthus retroflexus [7] = assay: Pre-emergence herbicide efficacy at 80 g/ha, AMARE; conditions: scored visually after about 3 weeks vs untreated controls, 100% = plants have died
# Method in brief: as §1
# Abutilon theophrasti [8] = assay: Pre-emergence herbicide efficacy at 80 g/ha, ABUTH; conditions: scored visually after about 3 weeks vs untreated controls, 100% = plants have died
# Text: as §2, §6, §7
# Polygonum convolvulus [9] = assay: Pre-emergence herbicide efficacy at 80 g/ha, POLCO; conditions: scored visually after about 3 weeks vs untreated controls, 100% = plants have died
# Method in brief: as §1
# Amaranthus retroflexus [10] = assay: Post-emergence herbicidal efficacy at 80 g/ha, AMARE; conditions: rated visually after about 3 weeks vs untreated controls, 100% = plants have died
# Method in brief: as §3
# Viola tricolor [11] = assay: Pre-emergence herbicide efficacy at 80 g/ha, VIOTR
# Method in brief: as §1
# Lolium rigidum = assay: Pre-emergence herbicide efficacy at 80 g/ha, LOLRI; conditions: scored visually after about 3 weeks vs untreated controls, 100% = plants have died
# Text: as §2
# as §6, with “control plants. […]” for “control plants.”
# Veronica persica [12] = assay: Post-emergence herbicidal efficacy at 80 g/ha, VERPE; conditions: rated visually after about 3 weeks vs untreated controls, 100% = plants have died
# Method in brief: as §3
# Digitaria sanguinalis [13] = assay: Post-emergence herbicidal efficacy at 80 g/ha, DIGSA; conditions: rated visually after about 3 weeks vs untreated controls, 100% = plants have died
# Text: as §2, §4, §5
# Digitaria sanguinalis [14] = assay: Pre-emergence herbicide efficacy at 80 g/ha, DIGSA; conditions: scored visually after about 3 weeks vs untreated controls, 100% = plants have died
# Method in brief: as §1
# Alopecurus myosuroides = assay: Pre-emergence herbicide efficacy at 80 g/ha, ALOMY; conditions: scored visually after about 3 weeks vs untreated controls, 100% = plants have died
# Text: as §2, §6, §7
# Viola tricolor [15] = assay: Post-emergence herbicidal efficacy at 80 g/ha, VIOTR; conditions: rated visually after about 3 weeks vs untreated controls, 100% = plants have died
# Method in brief: as §3
# Abutilon theophrasti [16] = assay: Post-emergence herbicidal efficacy at 80 g/ha, ABUTH; conditions: rated visually after about 3 weeks vs untreated controls, 100% = plants have died
# Text: as §2, §4, §5
# Echinochloa crus-galli [17] = assay: Post-emergence herbicidal efficacy at 80 g/ha, ECHCG; conditions: rated visually after about 3 weeks vs untreated controls, 100% = plants have died
# Text: as §2, §4, §5
# Matricaria inodora = assay: Pre-emergence herbicide efficacy at 80 g/ha, MATIN; conditions: scored visually after about 3 weeks vs untreated controls, 100% = plants have died
# Text: as §2, §6, §7
# Kochia scoparia [18] = assay: Pre-emergence herbicide efficacy at 80 g/ha, KCHSC; conditions: scored visually after about 3 weeks vs untreated controls, 100% = plants have died
# Method in brief: as §1
smiles,measurement,setting,value
FC(F)c1cc(-c2c(Cl)cccc2Nc2ncc(Cl)cn2)on1 [Example 1-61],Pre-emergence efficacy against SETVI,Setaria viridis [1],100%
same,Pre-emergence efficacy against VERPE,Veronica persica [2],90%
same,Post-emergence efficacy at 80 g/ha against POLCO in %,Polygonum convolvulus [3],100%
same,Post-emergence efficacy at 80 g/ha against PHBPU in %,PHBPU,100%
same,Post-emergence efficacy at 80 g/ha against KCHSC in %,Kochia scoparia [4],100%
same,Post-emergence efficacy at 80 g/ha against SETVI in %,Setaria viridis [5],100%
same,Pre-emergence efficacy at 80 g/ha against ECHCG in %,Echinochloa crus-galli [6],100%
same,Pre-emergence efficacy at 80 g/ha against AMARE in %,Amaranthus retroflexus [7],100%
same,Pre-emergence efficacy at 80 g/ha against ABUTH in %,Abutilon theophrasti [8],90%
same,Pre-emergence efficacy at 80 g/ha against POLCO in %,Polygonum convolvulus [9],80%
same,Post-emergence efficacy at 80 g/ha against AMARE in %,Amaranthus retroflexus [10],100%
same,Pre-emergence efficacy against VIOTR,Viola tricolor [11],100%
same,Pre-emergence efficacy at 80 g/ha against LOLRI in %,Lolium rigidum,90%
same,Post-emergence efficacy at 80 g/ha against VERPE in %,Veronica persica [12],100%
same,Post-emergence efficacy at 80 g/ha against DIGSA in %,Digitaria sanguinalis [13],100%
same,Pre-emergence efficacy at 80 g/ha against DIGSA in %,Digitaria sanguinalis [14],100%
same,Pre-emergence efficacy at 80 g/ha against ALOMY in %,Alopecurus myosuroides,90%
same,Post-emergence efficacy at 80 g/ha against VIOTR in %,Viola tricolor [15],100%
same,Post-emergence efficacy at 80 g/ha against ABUTH in %,Abutilon theophrasti [16],100%
same,Post-emergence efficacy at 80 g/ha against ECHCG in %,Echinochloa crus-galli [17],100%
same,Pre-emergence efficacy at 80 g/ha against MATIN in %,Matricaria inodora,100%
same,Pre-emergence efficacy at 80 g/ha against KCHSC in %,Kochia scoparia [18],100%
Fc1cnc(Nc2cccc(Cl)c2-c2cc(C(F)F)no2)nc1 [Example 1-62],Pre-emergence efficacy against SETVI,Setaria viridis [1],100%
same,Pre-emergence efficacy against VERPE,Veronica persica [2],100%
same,Post-emergence efficacy at 80 g/ha against KCHSC in %,Kochia scoparia [4],100%
same,Post-emergence efficacy at 80 g/ha against SETVI in %,Setaria viridis [5],100%
same,Pre-emergence efficacy at 80 g/ha against ECHCG in %,Echinochloa crus-galli [6],100%
same,Pre-emergence efficacy at 80 g/ha against AMARE in %,Amaranthus retroflexus [7],100%
same,Pre-emergence efficacy at 80 g/ha against ABUTH in %,Abutilon theophrasti [8],100%
same,Pre-emergence efficacy at 80 g/ha against POLCO in %,Polygonum convolvulus [9],80%
same,Post-emergence efficacy at 80 g/ha against AMARE in %,Amaranthus retroflexus [10],100%
same,Pre-emergence efficacy against VIOTR,Viola tricolor [11],100%
same,Pre-emergence efficacy at 80 g/ha against LOLRI in %,Lolium rigidum,100%
same,Post-emergence efficacy at 80 g/ha against VERPE in %,Veronica persica [12],100%
same,Post-emergence efficacy at 80 g/ha against DIGSA in %,Digitaria sanguinalis [13],80%
same,Pre-emergence efficacy at 80 g/ha against DIGSA in %,Digitaria sanguinalis [14],100%
same,Pre-emergence efficacy at 80 g/ha against ALOMY in %,Alopecurus myosuroides,100%
same,Post-emergence efficacy at 80 g/ha against VIOTR in %,Viola tricolor [15],100%
same,Post-emergence efficacy at 80 g/ha against ABUTH in %,Abutilon theophrasti [16],90%
same,Post-emergence efficacy at 80 g/ha against ECHCG in %,Echinochloa crus-galli [17],80%
same,Pre-emergence efficacy at 80 g/ha against KCHSC in %,Kochia scoparia [18],100%
